Test results as given in the supplement of paper PMC11451515.

What was measured:
Settings in all cases: 48 h
NOMO1 [1] = assay: AUC of viability dose-response curve (% viability x log10 dose units); higher = less sensitive
Procedure, shortened: (§1)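 Leukemia cells adapted to each medium were seeded at 500 or 1000 cells/well in 1536-well plates and dosed with library compounds in DMSO at 11 threefold doses from 47 μM to 0.79 nM for 48 h at 37°C. CellTiter-Glo One luminescence was normalised per plate to DMSO and cell-free wells, then fitted with a four-parameter log-logistic model over log10 doses. Area under the curve was taken from this fit by the trapezoidal rule, with curves above full viability scaled and curves failing quality control removed.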

P12-Ichikawa [2] = assay: as above
Procedure, shortened: as §1

SEM cells [3] = assay: as above
Procedure, shortened: as §1

NOMO1 [4] = assay: cell viability relative to DMSO control; higher = less cytotoxic
Procedure, shortened: (§2)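 Library compounds in DMSO were pin-dosed into 1536-well plates (5 μl) holding NOMO1 or SEM (500 cells/well) or P12-Ichikawa (1000 cells/well) leukemia cells, across an 11-point threefold series of 47 μM to 0.79 nM. Each cell line had been adapted for at least four passages in each medium. CellTiter-Glo One luminescence was read after 48 h at 37°C. Viability is the per-plate percentage relative to DMSO wells, with cell-free wells as background.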

P12-Ichikawa [5] = assay: as above
Procedure, shortened: as §2

SEM cells [6] = assay: as above
Procedure, shortened: as §2

CCCn1c(=O)c2[nH]c(-c3cnn(Cc4cccc(C(F)(F)F)c4)c3)nc2n(CC)c1=O
AUC of viability dose-response curve
Settings	NOMO1 [1]	P12-Ichikawa [2]	SEM cells [3]
HPLM + 10% dialyzed FBS	394	446	470
RPMI 5 mM glucose + 10% FBS	443	388	467
RPMI 5 mM glucose + 10% dialyzed FBS	413	438	467

cell viability [%]
Settings	NOMO1 [4]	P12-Ichikawa [5]	SEM cells [6]
HPLM + 10% dialyzed FBS, 0.000781 µM	111	108	100
HPLM + 10% dialyzed FBS, 0.00234 µM	113	106	109
HPLM + 10% dialyzed FBS, 0.00702 µM	102	122	111
HPLM + 10% dialyzed FBS, 0.0211 µM	125	112	120
HPLM + 10% dialyzed FBS, 0.0632 µM	115	112	109
HPLM + 10% dialyzed FBS, 0.19 µM	116	115	124
HPLM + 10% dialyzed FBS, 0.569 µM	96	109	124
HPLM + 10% dialyzed FBS, 1.71 µM	82.4	106	113
HPLM + 10% dialyzed FBS, 5.12 µM	64.1	88.1	107
HPLM + 10% dialyzed FBS, 15.4 µM	56.4	83.3	109
HPLM + 10% dialyzed FBS, 46.1 µM	43.5	84.7	95.4
RPMI 5 mM glucose + 10% FBS, 0.000781 µM	92.7	115	95.8
RPMI 5 mM glucose + 10% FBS, 0.00234 µM	93.1	124	89.9
RPMI 5 mM glucose + 10% FBS, 0.00702 µM	101	123	106
RPMI 5 mM glucose + 10% FBS, 0.0211 µM	103	137	109
RPMI 5 mM glucose + 10% FBS, 0.0632 µM	103	125	103
RPMI 5 mM glucose + 10% FBS, 0.19 µM	105	118	108
RPMI 5 mM glucose + 10% FBS, 0.569 µM	102	85.6	99.8
RPMI 5 mM glucose + 10% FBS, 1.71 µM	98.8	73	94.4
RPMI 5 mM glucose + 10% FBS, 5.12 µM	82.7	65.1	116
RPMI 5 mM glucose + 10% FBS, 15.4 µM	69.8	74.6	109
RPMI 5 mM glucose + 10% FBS, 46.1 µM	61.5	72.9	90.5
RPMI 5 mM glucose + 10% dialyzed FBS, 0.000781 µM	98.6	114	109
RPMI 5 mM glucose + 10% dialyzed FBS, 0.00234 µM	104	109	109
RPMI 5 mM glucose + 10% dialyzed FBS, 0.00702 µM	92.1	105	111
RPMI 5 mM glucose + 10% dialyzed FBS, 0.0211 µM	81.6	108	111
RPMI 5 mM glucose + 10% dialyzed FBS, 0.0632 µM	105	107	116
RPMI 5 mM glucose + 10% dialyzed FBS, 0.19 µM	103	109	124
RPMI 5 mM glucose + 10% dialyzed FBS, 0.569 µM	85.3	109	109
RPMI 5 mM glucose + 10% dialyzed FBS, 1.71 µM	80.6	103	104
RPMI 5 mM glucose + 10% dialyzed FBS, 5.12 µM	76.9	81.4	112
RPMI 5 mM glucose + 10% dialyzed FBS, 15.4 µM	65.2	73.6	117
RPMI 5 mM glucose + 10% dialyzed FBS, 46.1 µM	44.7	68.8	98.4

CCOc1cc2c(c(F)c1OCC)C(=N)N(CC(=O)c1cc(N3CCOCC3)c(OC)c(C(C)(C)C)c1)C2
AUC of viability dose-response curve
Settings	NOMO1 [1]	P12-Ichikawa [2]	SEM cells [3]
HPLM + 10% dialyzed FBS	464	465	465
RPMI 5 mM glucose + 10% FBS	435	472	464
RPMI 5 mM glucose + 10% dialyzed FBS	453	475	453

cell viability [%]
Settings	NOMO1 [4]	P12-Ichikawa [5]	SEM cells [6]
HPLM + 10% dialyzed FBS, 0.000781 µM	98.4	104	96.2
HPLM + 10% dialyzed FBS, 0.00234 µM	121	105	95.6
HPLM + 10% dialyzed FBS, 0.00702 µM	118	107	95.7
HPLM + 10% dialyzed FBS, 0.0211 µM	138	114	101
HPLM + 10% dialyzed FBS, 0.0632 µM	115	112	94
HPLM + 10% dialyzed FBS, 0.19 µM	148	111	110
HPLM + 10% dialyzed FBS, 0.569 µM	131	115	117
HPLM + 10% dialyzed FBS, 1.71 µM	125	115	108
HPLM + 10% dialyzed FBS, 5.12 µM	142	116	104
HPLM + 10% dialyzed FBS, 15.4 µM	127	118	97.8
HPLM + 10% dialyzed FBS, 46.1 µM	118	100	59.8
RPMI 5 mM glucose + 10% FBS, 0.000781 µM	109	110	110
RPMI 5 mM glucose + 10% FBS, 0.00234 µM	112	124	98.1
RPMI 5 mM glucose + 10% FBS, 0.00702 µM	104	128	93.9
RPMI 5 mM glucose + 10% FBS, 0.0211 µM	109	118	113
RPMI 5 mM glucose + 10% FBS, 0.0632 µM	130	126	111
RPMI 5 mM glucose + 10% FBS, 0.19 µM	108	132	103
RPMI 5 mM glucose + 10% FBS, 0.569 µM	123	128	114
RPMI 5 mM glucose + 10% FBS, 1.71 µM	121	127	121
RPMI 5 mM glucose + 10% FBS, 5.12 µM	122	124	108
RPMI 5 mM glucose + 10% FBS, 15.4 µM	135	131	107
RPMI 5 mM glucose + 10% FBS, 46.1 µM	126	108	52.5
RPMI 5 mM glucose + 10% dialyzed FBS, 0.000781 µM	113	108	83.9
RPMI 5 mM glucose + 10% dialyzed FBS, 0.00234 µM	122	114	105
RPMI 5 mM glucose + 10% dialyzed FBS, 0.00702 µM	121	111	99.8
RPMI 5 mM glucose + 10% dialyzed FBS, 0.0211 µM	129	118	101
RPMI 5 mM glucose + 10% dialyzed FBS, 0.0632 µM	131	125	119
RPMI 5 mM glucose + 10% dialyzed FBS, 0.19 µM	124	117	116
RPMI 5 mM glucose + 10% dialyzed FBS, 0.569 µM	124	119	117
RPMI 5 mM glucose + 10% dialyzed FBS, 1.71 µM	139	117	124
RPMI 5 mM glucose + 10% dialyzed FBS, 5.12 µM	141	113	117
RPMI 5 mM glucose + 10% dialyzed FBS, 15.4 µM	138	120	125
RPMI 5 mM glucose + 10% dialyzed FBS, 46.1 µM	130	105	74.4

COc1cc(/C=C/C(=O)CC(=O)/C=C/c2ccc(O)c(OC)c2)ccc1O
AUC of viability dose-response curve
Settings	NOMO1 [1]	P12-Ichikawa [2]	SEM cells [3]
HPLM + 10% dialyzed FBS	419	416	406
RPMI 5 mM glucose + 10% FBS	440	431	409
RPMI 5 mM glucose + 10% dialyzed FBS	441	433	417

cell viability [%]
Settings	NOMO1 [4]	P12-Ichikawa [5]	SEM cells [6]
HPLM + 10% dialyzed FBS, 0.000781 µM	105	99.1	66.6
HPLM + 10% dialyzed FBS, 0.00234 µM	105	96.9	96.9
HPLM + 10% dialyzed FBS, 0.00702 µM	118	108	108
HPLM + 10% dialyzed FBS, 0.0211 µM	111	104	98.8
HPLM + 10% dialyzed FBS, 0.0632 µM	112	110	102
HPLM + 10% dialyzed FBS, 0.19 µM	123	105	99.5
HPLM + 10% dialyzed FBS, 0.569 µM	114	109	104
HPLM + 10% dialyzed FBS, 1.71 µM	115	106	118
HPLM + 10% dialyzed FBS, 5.12 µM	99.8	96.4	90.4
HPLM + 10% dialyzed FBS, 15.4 µM	42.3	27.8	15.1
HPLM + 10% dialyzed FBS, 46.1 µM	5.01	5.27	5.19
RPMI 5 mM glucose + 10% FBS, 0.000781 µM	97.4	102	77.5
RPMI 5 mM glucose + 10% FBS, 0.00234 µM	93.6	104	114
RPMI 5 mM glucose + 10% FBS, 0.00702 µM	103	98.4	119
RPMI 5 mM glucose + 10% FBS, 0.0211 µM	108	113	128
RPMI 5 mM glucose + 10% FBS, 0.0632 µM	106	113	137
RPMI 5 mM glucose + 10% FBS, 0.19 µM	105	110	120
RPMI 5 mM glucose + 10% FBS, 0.569 µM	102	105	120
RPMI 5 mM glucose + 10% FBS, 1.71 µM	115	104	128
RPMI 5 mM glucose + 10% FBS, 5.12 µM	102	99.1	99.5
RPMI 5 mM glucose + 10% FBS, 15.4 µM	73.2	61.2	23.6
RPMI 5 mM glucose + 10% FBS, 46.1 µM	7.35	4.23	5.59
RPMI 5 mM glucose + 10% dialyzed FBS, 0.000781 µM	105	98.8	72.8
RPMI 5 mM glucose + 10% dialyzed FBS, 0.00234 µM	105	102	96.8
RPMI 5 mM glucose + 10% dialyzed FBS, 0.00702 µM	106	105	106
RPMI 5 mM glucose + 10% dialyzed FBS, 0.0211 µM	106	110	108
RPMI 5 mM glucose + 10% dialyzed FBS, 0.0632 µM	118	104	107
RPMI 5 mM glucose + 10% dialyzed FBS, 0.19 µM	112	98.2	115
RPMI 5 mM glucose + 10% dialyzed FBS, 0.569 µM	104	104	107
RPMI 5 mM glucose + 10% dialyzed FBS, 1.71 µM	104	113	118
RPMI 5 mM glucose + 10% dialyzed FBS, 5.12 µM	101	102	90.8
RPMI 5 mM glucose + 10% dialyzed FBS, 15.4 µM	79.9	60.3	34.8
RPMI 5 mM glucose + 10% dialyzed FBS, 46.1 µM	10.1	4.18	5.02
